Source: patent publication US20220098228A1, “METHODS AND COMPOSITIONS FOR IMPROVING THE IMMUNE SYSTEM AND PROVIDING IMMUNO-PROTECTION” (Natreon, Inc., priority 2020, published 2022)
Like-named read-outs stand apart in the source and are kept apart here. Marks after values point to notes of the source that are not given here.

Experiments:
[1] = tested on: peritoneal macrophages; test: NBT reduction assay in peritoneal macrophages, cyclophosphamide-induced immunosuppression (Example II); assay type: in vivo, Swiss albino mice; settings: for OD (515 nm), NBT reduction assay in peritoneal macrophages: Mean ± SD, n = 6; for improvement in NBT reduction capacity: 10 mg/kg body weight p.o., in comparison with cyclophosphamide treated mice
Experimental: (§1) The mice were acclimatized for one week in the laboratory conditions, before being used in the experiment. All experiments were conducted between 10.00 hr and 14.00 hr. Principles of laboratory animal care (NIH publication no. 85-23, revised 1985) were followed.
(§2) All test compounds (DBPs and DBP glycosides) were suspended in 0.3% of CMC (Carboxymethyl Cellulose) solutions of distilled water and were administered orally for 7 days by using an intubation canula. The volume of dose was 100 μl/10 g body weight. Cyclophosphamide was dissolved in distilled water and was injected (250 mg/kg, i.p.) on day one and volume of dose was 100 μl/10 g body weight. Control animals received equivalent volume of the vehicles CMC (0.3%) solutions only.
On day seven all the animals were sacrificed under ether anesthesia and peritoneal macrophages were lavaged using ice cold phosphate buffer saline (PBS: 0.15M NaCl pH-7.4). After centrifugation (3000 rpm×10 min) at 4° C. the pellet was re-suspended in PBS and cell viability was confirmed by trypan blue exclusion method. (Bala A, Haldar P K, Kar B, Naskar S and Mazumder U K, “Carbon tetrachloride: A hepatotoxin causes oxidative stress in murine peritoneal macrophage and peripheral blood lymphocyte cells” Immunopharmacol. and Immunotoxicol. 34(1): 157-162 (2012)).
Preparation of NBT solution: 0.2% NBT (nitroblue tetrazolium) in PB (Phosphate Buffer, pH 7.4), 5% dextrose and HBSS (Hank's balanced salt solution). The three solutions were mixed in 6:2:4 ratios. (Saxena A K, Singh K P, Srivastava S N, Shukla L J and Shanker R., “Immunomodulating effects of caffeine in rodents” Ind J Exptl Biol. 22: 298-301 (1984)).
Method: 0.5 ml of NBT solution was added to 0.5 ml of peritoneal macrophages (1×10^6 cells/ml) in a micro-centrifuge tube. This mixture was incubated at 37° C. for 45 minutes. The cell suspension was centrifuged at 1500 rpm for 10 minutes. Supernatant was discarded and pellet was re-suspended in 2 ml of DMSO. The tubes were kept in a boiling water bath for 10 minutes. The tubes were again centrifuged at 1500 rpm for 10 minutes. The supernatant was collected, and absorbance was measured at 515 nm.

[2] = tested on: splenocytes; test: Cell viability of splenocytes, trypan blue exclusion, cyclophosphamide-induced immunosuppression (Example II); assay type: in vivo, Swiss albino mice; settings: for % Cell Viability of splenocytes: Mean ± SD, n = 6
Experimental: as §1, §2
Spleen was collected. Single cell suspension was prepared by mincing and tapping the spleen fragments on stainless steel 200-mesh in ice cold phosphate buffer saline (PBS: 0.15M NaCl pH 7.4). Cell suspension was centrifuged at 2000 rpm for 10 minutes. The pellet was re-suspended in PBS and cell viability was confirmed by trypan blue exclusion method.

[3] = tested on: Swiss albino mice; test: Cyclophosphamide-induced immunosuppression in mice, overall conclusion (Example II); assay type: in vivo; settings: treatment for 7 days at 10 mg/kg body weight (p.o.)
Experimental: All experiments were conducted between 10.00 hr and 14.00 hr. […] Control animals received equivalent volume of the vehicles CMC (0.3%) solutions only.

[4] = tested on: splenocytes; test: Splenocyte viability, trypan blue exclusion (Example III); assay type: in vivo, Swiss albino mice; settings: for % Viability Day7, splenocyte viability: Day 7, cyclophosphamide 250 mg/kg i.p. alone
Experimental: (§3) Male and female Swiss albino mice (n=8; 4 from each gender) weighing approximately 25±5 g, were obtained from National Research Institute of Ayurveda for Drug Development (Govt. of India), Kolkata, and were housed in polypropylene cages at 22±3° C., relative air humidity of 45 to 55%, with 12.00 h light & dark cycle (lighting on from 6:00 AM to 6:00 PM). […] The mice were acclimatized for one week in the laboratory conditions, before being used in the experiment. All experiments were conducted between 10.00 h and 14.00 h. Principles of laboratory animal care (NIH publication no. 85-23, revised 1985) was followed.
(§4) Cyclophosphamide was dissolved in distilled water and the mice were administered a single exposure (250 mg/kg, i.p.) on day 1.
(§5) 3-OH-DBP, 3,8-(OH)2-DBP, and combined 3-OH-DBP+3,8-(OH)2-DBP were administered once daily for 7 days starting from day 1. Following 7 days of treatment the mice were anaesthetized and sacrificed under anaesthesia followed by collection of peritoneal macrophages and spleen (for splenocyte isolation).
(§6) Swiss albino mice were randomly divided into 8 Groups (n=8; 4 from each gender). […] (2:10) (12 mg/kg b.w., p.o.), Group VI mice were administered 3-OH-DBP (10 mg/kg b.w., p.o.), Group VII mice were administered 3,8-(OH)2-DBP (50 mg/kg b.w., p.o.), Group VIII mice were administered [3-OH-DBP+3,8-(OH)2-DBP] (10:50) (60 mg/kg b.w., p.o.).
Spleens were collected and single cell suspension was prepared by mincing and tapping the spleen fragments on stainless steel 200-mesh in ice cold phosphate buffer saline (PBS: 0.15M NaCl; pH: 7.4). Cell suspensions were centrifuged at 2000 rpm for 10 minutes.
(§7) Results were expressed in terms of mean±SEM (n=8; 4 from each gender). Data were subjected to one way ANOVA followed by Tukey's test using GraphPad Prism 4.0 software to establish statistical significance (*p<0.05, **p<0.01, ***p<0.001, where * refers to comparison with Group I vehicle control; #p<0.05, ##p<0.01, ###p<0.001, where #refers to comparison with Group II cyclophosphamide administration; ^ap<0.05, ^aap<0.01, ^aap<0.01, where a refers to comparison of Day 7 with Day 0).

[5] = tested on: peritoneal macrophages; test: NBT reduction of peritoneal macrophages (Example III); assay type: in vivo, Swiss albino mice; settings: for NBT reduction compared with vehicle control: cyclophosphamide, 3-OH-DBP 2 and 10 mg/kg, combined 12 mg/kg
Experimental: as §3, §4, §5, §6
(§8) All the animals were sacrificed under ether anesthesia and peritoneal macrophages were lavaged using ice cold phosphate buffer saline (PBS: 0.15 M NaCl; pH: 7.4). After centrifugation (3000 rpm×10 min) at 4° C., pellets were re-suspended in PBS and cell viability was confirmed by trypan blue exclusion assay.
Preparation of NBT solution: 0.2% NBT (nitroblue tetrazolium) in PBS (pH 7.4), 5% dextrose and HBSS. These three solutions were mixed in 6:2:4 ratios.
0.5 ml of NBT solution was added to 0.5 ml of peritoneal macrophages (1×10^6 cells/ml) in micro-centrifuge tube. This mixture was incubated at 37° C. for 2 hours. The cell suspension was centrifuged at 2000 rpm for 10 minutes. Supernatants were discarded and pellets were re-suspended in 1 ml of DMSO. The tubes were kept in boiling water bath for 10 minutes and then cooled and centrifuged at 2000 rpm for 10 minutes. The supernatants were collected and absorbance was measured at 515 nm.
as §7

[6] = tested on: peritoneal macrophages; test: Peritoneal macrophage viability, trypan blue exclusion (Example III); assay type: in vivo, Swiss albino mice; settings: for % Viability Day 7, peritoneal macrophage viability: cyclophosphamide 250 mg/kg i.p. alone
Experimental: as §3, §4, §5, §6, §8, §7

[7] = for Body Weight (gm) Day 0 / Feed Intake (gm) Day 0 / Water Intake (ml) Day 0 / Body Weight (gm) Day 7 / Feed Intake (gm) Day 7 / Water Intake (ml) Day 7: cyclophosphamide 250 mg/kg i.p. alone; for feed intake compared to vehicle control: 3,8-(OH)2-DBP 50 mg/kg
Experimental: as §3, §4, §5, §6, §7

[8] = 10 mg/kg body weight p.o. 7 days + cyclophosphamide 250 mg/kg i.p.
[9] = cyclophosphamide 250 mg/kg i.p. day one, alone, day 7
[10] = female mice, cyclophosphamide alone

O=c1oc2cc(OC3OC(CO)C(O)C(O)C3O)ccc2c2ccc(OC3OC(CO)C(O)C(O)C3O)cc12 [3,8-(OH)2-DBP glycoside, 3,8-di-(O-D-Glucopyranosyl)-Dibenzo-alpha-pyrone]
OD (515 nm), NBT reduction assay in peritoneal macrophages [1, 8]: 0.153 ± 0.013 | improvement in NBT reduction capacity [1]: moderate (p<0.05) improvement | % Cell Viability of splenocytes [2, 8]: 58.58 ± 4.49% | Cyclophosphamide-induced immunosuppression (conclusion) [3]: rescued

O=c1oc2cc(OC3OC(CO)C(O)C(O)C3O)ccc2c2ccccc12 [3-OH-DBP glycoside, 3-O-D-Glucopyranosyl-Dibenzo-alpha-pyrone]
OD (515 nm), NBT reduction assay in peritoneal macrophages [1, 8]: 0.168 ± 0.014 | improvement in NBT reduction capacity [1]: highest level of improvement | % Cell Viability of splenocytes [2, 8]: 60.39 ± 5.85 % | improvement in splenocyte viability ([2]; 10 mg/kg p.o. in cyclophosphamide-treated mice): significant improvement | Cyclophosphamide-induced immunosuppression (conclusion) [3]: rescued

O=P1(N(CCCl)CCCl)NCCCO1 (stereo not shown) [Cyclophosphamide, reference compound]
OD (515 nm), NBT reduction assay in peritoneal macrophages [1, 9]: 0.117 ± 0.015 | NBT reduction capacity of peritoneal macrophages ([1]; cyclophosphamide alone vs CMC control): significant (p<0.001) decrease | % Cell Viability of splenocytes [2, 9]: 51.12 ± 4.69 % | splenocyte viability ([2]; cyclophosphamide alone vs control): significantly (p<0.01) decreased | % Viability Day7, splenocyte viability ([4]; female mice): 79.70 ± 1.58*** % | splenocyte viability compared with vehicle control [4, 10]: significantly (p<0.001) decreased | % Viability Day7, splenocyte viability ([4]; male mice): 70.22 ± 0.98*** % | splenocyte viability compared with vehicle control ([4]; male mice, cyclophosphamide, 2 mg/kg 3-OH-DBP, 10 mg/kg 3,8-(OH)2-DBP, 12 mg/kg combined): significantly (p<0.001) decreased | O.D. (515 nm) Day 7, NBT reduction of peritoneal macrophages ([5]; female mice, Day 7, cyclophosphamide 250 mg/kg i.p. alone): 0.119 ± 0.005*** | NBT reduction compared with vehicle control ([5]; female mice, 3,8-(OH)2-DBP 10 and 50 mg/kg): significantly (p<0.05, p<0.01, p<0.001) decreased | O.D (515 nm) Day 7, NBT reduction of peritoneal macrophages ([5]; male mice, Day 7, cyclophosphamide 250 mg/kg i.p. alone): 0.209 ± 0.02419*** | NBT reduction compared with vehicle control ([5]; male mice, 3,8-(OH)2-DBP 10 mg/kg): significantly (p<0.01, p<0.001) decreased | % Viability Day 7, peritoneal macrophage viability ([6]; female mice): 58.19 ± 0.60** % | peritoneal macrophage viability compared with vehicle control [6, 10]: significantly (p<0.05) decreased | % Viability Day 7, peritoneal macrophage viability ([6]; male mice): 55.72 ± 2.18* % | peritoneal macrophage viability compared with vehicle control ([6]; male mice, cyclophosphamide, 3-OH-DBP 2 mg/kg, 3,8-(OH)2-DBP 10 mg/kg): significantly (p<0.05) decreased | Body Weight (gm) Day 0 ([7]; female mice): 23.00 ± 1.89 gm | Feed Intake (gm) Day 0 ([7]; female mice): 28.50 ± 0.96 gm | Water Intake (ml) Day 0 ([7]; female mice): 3.620 ± 0.16 mL | Body Weight (gm) Day 7 ([7]; female mice): 21.75 ± 0.63 gm | Feed Intake (gm) Day 7 ([7]; female mice): 24.71 ± 0.41^a gm | Water Intake (ml) Day 7 ([7]; female mice): 6.425 ± 0.48 mL | feed intake compared to vehicle control ([7]; female mice, cyclophosphamide, 3-OH-DBP 10 mg/kg): significantly (p<0.05, p<0.01) decreased | Body Weight (gm) Day 0 ([7]; male mice): 30.75 ± 1.89 gm | Feed Intake (gm) Day 0 ([7]; male mice): 28.50 ± 0.96 gm | Water Intake (ml) Day 0 ([7]; male mice): 6.125 ± 0.16 mL | Body Weight (gm) Day 7 ([7]; male mice): 30.50 ± 2.18 gm | Feed Intake (gm) Day 7 ([7]; male mice): 26.81 ± 0.86^a gm | Water Intake (ml) Day 7 ([7]; male mice): 5.863 ± 0.15*,## ml | feed intake compared to vehicle control ([7]; male mice, cyclophosphamide, 3-OH-DBP 10 mg/kg): significantly (p<0.05, p<0.01) decreased | feed intake Day 7 in comparison to Day 0 ([7]; male mice, cyclophosphamide, 3-OH-DBP 10 mg/kg, 3,8-(OH)2-DBP 10 and 50 mg/kg): significantly (p<0.05, p<0.01) decreased
